The text below walks through data of US20260355171A1, “INHIBITORS AND USES THEREFOR” (priority 2022, published 2026).

For experiment [1], the system named is Omicron variant of SARS-CoV-2.
Experiment [2] has as its system Delta variant of SARS-CoV-2.

Regarding `NC(=O)C1CCN(c2ncccc2CNCc2cccc3[nH]ccc23)CC1` [Compound 22], the “Titre of Omicron variant” value in experiment [1] is listed as “Significant reduction of titres”. Moreover, the “Titre of Delta variant” value in experiment [2] is on record as “Significant reduction of titres”.
